Data as given in patent US6831199B1, “Pyrimidine compounds and derivatives thereof” (G. D. Searle & Co., priority 1995, dated 2004).
Counter-ions that a name gives are not always drawn. Like-named read-outs stand apart in the source and are kept apart here.

Experiments:
M21 human melanoma cells = experiment: M21 melanoma cell adhesion assay (αvβ3-dependent adhesion to human fibrinogen-coated plates); assay type: cell-based
Experimental: M21 MELANOMA CELL ADHESION ASSASY
This assay involves an αvβ3-dependent adhesion of M21 human melanoma cells to human fibrinogen-coated plastic tissue culture dishes.
Fibrinogen was purified from human plasma. Fibronectin and plasminogen were eliminated from the preparation by passing the sample over gelatin-sepharose 4B and lysine-sepharose 4B resins, respectively. The fibrinogen is diluted to 10 μg/mL in coating buffer ([…] Tris-HCl, 150 mM NaCl, pH 7.4). 100 μL of diluted fibrinogen is added to each well of a 96-well Immulon 2 microtiter plate (Dynatech; Chantilly, Va.) and allowed to coat overnight at 4° C. Plates are blocked with 1% BSA (Miles/Pentex; Kankakee, Ill.) in adhesion buffer (Hank's balanced salt solution without Ca^++ or Mg^++ [HBSS−−], 50 mM Hepes, 1 mg/mL BSA, pH 7.4) for 1 hour at 37° C.
M21 human melanoma cells were provided by Dr. J. Smith, La Jolla Cancer Research Institute. M21 cells are harvested from tissue culture flasks by washing with HBSS−− and adding cell dissociation solution (Sigma) and incubating for 5 minutes at 37° C. Harvested cells are washed 3 times with adhesion assay buffer containing 200 μM Mn^++. Cells are counted and suspended to a density of 2×10^6/mL in adhesion assay buffer containing 200 μM Mn^++. M21 cells are pre-incubated with antagonists of αvβ3 for 30 minutes at room temperature. Following the pre-incubation, the solutions containing a mixture of cells and antagonists are added to each well of the microtiter plate and allowed to bind for 30 minutes at 37° C.
Following adhesion, plates are gently washed 3 times with 200 μL of wash buffer (50 mM Tris-HCl, 150 mM NaCl, pH 7.4) using large bore pipet tips. Plates are briefly blotted dry and 100 μL of cell lysis buffer (50 mM sodium acetate, pH 5.0, 0.5% Triton X-100, 0.3 mg/mL p-nitrophenyl phosphate [Sigma] is added to each well. Plates are incubated for 60 minutes at 37° C. and 50 μL of 1N NaOH is added to stop the reaction. The absorbance of the wells at […] is read using an automatic plate reader.

[1] = target: T1, Human fibrinogen receptor (αIIbβ3) (Homo sapiens, UniProt P05106+P08514); experiment: Purified IIb/IIIa receptor assay (solid phase receptor assay, competition with biotinylated vitronectin); assay type: binding
T1 construct: Human fibrinogen receptor (αIIbβ3) was purified from outdated platelets; from tissue; host or cells: outdated human platelets
Method in brief: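 Purified platelet αIIbβ3 coated overnight at 4 °C in TBS with 1.0 mM Ca/Mg/Mn, pH 7.4, then BSA-blocked. Compounds (top 1.0×10^−4 M) competed with 1 nM biotinylated vitronectin for 2 h at room temperature. Bound label detected by HRP anti-biotin, A450; values normalized to no-competitor controls, four-parameter fit.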

platelet rich plasma = experiment: Human platelet rich plasma assay (ADP induced platelet aggregation); assay type: cell-based; details: read-out: Human PRP
Method in brief: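 Citrated platelet-rich plasma from aspirin-free healthy human donors was stirred at 37 °C and preincubated with compound for 1 min. Aggregation was then triggered with ADP (added as a 200 uM solution) and recorded photometrically for 3 min. Dose–response curves were built from % inhibition of the maximal saline-control response.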

[2] = target: T2, Human vitronectin receptor (αvβ3) (Homo sapiens, UniProt P05106+P06756); experiment: Vitronectin adhesion assay (solid phase receptor assay, competition with biotinylated vitronectin); assay type: binding
T2 construct: Human vitronectin receptor (αvβ3) was purified from human placenta; from tissue; host or cells: human placenta
Method in brief: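 Purified human αvβ3 coated overnight at 4 °C in TBS with 1.0 mM Ca++, Mg++, Mn++, pH 7.4; compounds (top final 1.0×10^−4 M) competed with 1 nM biotinylated vitronectin for 2 h at room temperature. Bound ligand detected by HRP anti-biotin/OPD at A450; values normalized to no-competitor controls, four-parameter curve fit.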

[3] = Homo sapiens, M21, read-out: M21 Melanoma Cells IC50
[4] = Homo sapiens, M21; read-out: M21 Melanoma Cells IC50
[5] = trifluoroacetate salt; read-out: M21 Melanoma Cells IC50
[6] = ADP induced platelet aggregation in human platelet rich plasma

SMILES	IC50 (M21 human melanoma cells; [3]) [nM]	IC50 ([1]; read-out: IIb/IIIa IC50) [nM]	IC50 (platelet rich plasma; Homo sapiens, Platelet) [nM]	IC50 ([2]; read-out: AvB3 IC50) [nM]	IC50 (M21 human melanoma cells; [5]) [nM]	other results
N=C(N)Nc1cccc(C(=O)NCC(=O)NC(CC(=O)O)c2cccnc2)c1 (racemic) [Example 2, (±)β-[[2-[[[3-[(aminoiminomethyl)amino]phenyl]carbonyl]amino]acetyl]amino]pyridine-3-propanoic acid, bis(trifluoroacetate)salt]	0.25	51.2	200000	0.54	–	–
CCOC(=O)CC(NC(=O)CNC(=O)c1cccc(NC(=N)N)c1)c1ccccc1 (racemic) [Example 3, (±)ethyl β-[[2-[[[3-[(aminoiminomethyl)amino]phenyl]carbonyl]amino]acetyl]amino]benzenepropanoate, trifluoroacetate salt]	–	72900	–	498	–	IC50 (M21 human melanoma cells; [4]): 3050 nM
O=C(O)CC(NC(=O)CNC(=O)c1cccc(NC(=O)NCc2ccccc2)c1)c1cccnc1 (racemic) [Example 106, (±)β-[[2-[[[3-[[[(phenylmethyl)amino]carbonyl]aminophenyl]carbonyl]amino]acetyl]-amino]pyridine-3-propanoic acid]	–	3140	–	0.79	–	IC50 (M21 human melanoma cells; read-out: M21 Melanoma Cells IC50): 0.81 nM
C#C[C@H](CC(=O)O)NC(=O)CNC(=O)c1cccc(NC(=N)N)c1 [Example 69, 3S-[[2-[[[3-[(aminoiminomethyl)amino]phenyl]carbonyl]amino]acetyl]amino]-4-pentynoic acid, trifluoroacetate salt]	–	33.6	–	0.92	0.95	IC50 (platelet rich plasma; ADP induced platelet aggregation in human platelet rich plasma, trifluoroacetate salt): > 200000 nM
C#C[C@@H](CC(=O)O)NC(=O)CNC(=O)c1cccc(NC(=N)N)c1 [Example 70, 3R-[[2-[[[3-[(aminoiminomethyl)amino]phenyl]carbonyl]amino]acetyl]amino]-4-pentynoic acid, trifluoroacetate salt]	–	3240	–	63	924	IC50 (platelet rich plasma; [6]): > 200000 nM
N=C(N)Nc1cccc(C(=O)NCC(=O)N[C@H](COC(=O)c2ccccc2N)CC(=O)O)c1 [Example 94, 2S-[[2-[[[3-[[aminoiminomethyl]amino]phenyl]carbonyl]amino]acetyl]amino]-3-carboxypropyl 2-aminobenzoate, bis(trifluoroacetate)salt, monohydrate]	1	–	> 200000	–	–	IC50 ([1]; IIb/IIIa IC50): 101 nM; IC50 ([2]; AvB3 IC50): 1.16 nM
N=C(N)Nc1cccc(C(=O)NCC(=O)NCCC(=O)O)c1 [Example 97, N-[2-[[[3-[(aminoiminomethyl)amino]phenyl]carbonyl]amino]acetyl]-β-alanine]	–	1170	–	26.9	–	IC50 (M21 human melanoma cells; [4]): 163 nM
NC(=O)Nc1cccc(C(=O)NCC(=O)NC(CC(=O)O)c2cccnc2)c1 (stereo not drawn) [Example 110, β-[[2-[[[3-(aminocarbonylamino)phenyl]carbonyl]amino]acetyl]amino]pyridine-3-propanoic acid, trifluoroacetate salt]	–	1860	–	4.5	177	IC50 (platelet rich plasma; [6]): > 200000 nM
O=C(O)CC(NC(=O)CNC(=O)c1cccc(NC(=O)NCc2ccccc2)c1)c1ccccc1 (stereo not drawn) [Example 119, β-[[2-[[[3-[[[(phenylmethyl)amino]carbonyl]amino]phenyl]carbonyl]amino]acetyl]amino]benzenepropanoic acid]	90.4	11100	> 20000	3.61	–	–
